Each structure is given as a SMILES string. Activity calls are given as the source filed them. No cut-off for these calls is given here.

These results are taken from ChEMBL document CHEMBL4376845, “Design, Synthesis, and Biological Evaluation of MEK PROTACs” (J Med Chem, 2020).

Data set [1] concerns the target T1, von Hippel-Lindau disease tumor suppressor/Dual specificity mitogen-activated protein kinase kinase 2/Dual specificity mitogen-activated protein kinase kinase 1 (Homo sapiens) (UniProt P36507+Q02750+P40337). Briefly: Protac activity at VHL/MEK in human A375 cells assessed as reduction in ERK1/2 phosphorylation at 10 uM incubated for 2 hrs in presence of poly(I:C) stimulation by Surefire assay. Format: cell-based.

For data set [2], the target named is T1, von Hippel-Lindau disease tumor suppressor/Dual specificity mitogen-activated protein kinase kinase 2/Dual specificity mitogen-activated protein kinase kinase 1 (Homo sapiens). Briefly: Protac activity at VHL/MEK in human A375 cells assessed as MEK2 degradation at 10 uM incubated for 16 hrs in presence of poly(I:C) stimulation by immunoblotting analysis. Format: cell-based. A general note: A western blot detects proteins with antibodies after separation by electrophoresis.

Data set [3] shares this target. Briefly: Protac activity at VHL/MEK in human A375 cells assessed as maximal MEK1 degradation at 10 uM incubated for 8 hrs in presence of ploy(I:C) stimulation by Surefire assay. Format: cell-based.
The target is the same in data set [4]. Briefly: Protac activity at VHL/MEK in human A375 cells assessed as MEK1 degradation at 10 uM incubated for 2 hrs in presence of ploy(I:C) stimulation by Surefire assay. Format: cell-based.
Data set [5] shares this target. Kind of data set: Protac activity at VHL/MEK in human A375 cells assessed as MEK1 degradation at 10 uM incubated for 16 hrs in presence of poly(I:C) stimulation by Surefire assay relative to control. Format: cell-based.
The target is the same in data set [6]. Kind of data set: Protac activity at VHL/MEK in human A375 cells assessed as reduction in IL6 secretion at 10 uM incubated for 12 hrs followed by poly(I:C) treatment and measured after 4 hrs by AlphaLISA assay. Format: cell-based. A general note: Bead proximity is the source of the signal in Alpha formats.
For data set [7] the target is unchanged. Kind of data set: Protac activity at VHL/MEK in human A375 cells assessed as reduction in ERK1/2 phosphorylation at 10 uM incubated for >=8 hrs in presence of poly(I:C) stimulation by Surefire assay relative to control. Format: cell-based.
The nature of data set [8]: Aqueous solubility of the compound in buffer at pH 7.4. Format: physicochemical.
Data set [9] addresses T1, von Hippel-Lindau disease tumor suppressor/Dual specificity mitogen-activated protein kinase kinase 2/Dual specificity mitogen-activated protein kinase kinase 1 (Homo sapiens). Kind of data set: Protac activity at VHL/MEK in human A375 cells assessed as MEK1 degradation at 1 uM incubated for 16 hrs in presence of poly(I:C) stimulation by Surefire assay relative to control. It is filed as cell-based.

For data set [10] the target is unchanged. Briefly: Protac activity at VHL/MEK in human A375 cells assessed as MEK1 degradation at 1 to 10 uM incubated for 12 hrs followed by poly(I:C) treatment and measured after 4 hrs by Surefire assay. It is filed as cell-based.
The target of data set [11] is T2, Dual specificity mitogen-activated protein kinase kinase 1 (Homo sapiens, UniProt Q02750). Kind of data set: Inhibition of MEK1 (unknown origin) incubated for 60 mins in presence of ATP by Kinase Glo luminescence assay.
Data set [12] can be described thus: Lipophilicity, log D of compound. Conditions: octanol/water. It is filed as physicochemical.
Data set [13] concerns A-375. Briefly: Antiproliferative activity against human A375 cells assessed as growth inhibition at 10 uM measured up to 72 hrs by IncuCyte zoom live cell analysis. It is filed as functional, cell-based.
Data set [14] deals with T1, von Hippel-Lindau disease tumor suppressor/Dual specificity mitogen-activated protein kinase kinase 2/Dual specificity mitogen-activated protein kinase kinase 1 (Homo sapiens). Kind of data set: Protac activity at VHL/MEK in human A375 cells assessed as MEK1 degradation at 10 uM incubated for 16 hrs in presence of poly(I:C) stimulation by immunoblotting analysis. Format: cell-based.

For data set [15] the target is unchanged. Briefly: Protac activity at VHL/MEK in human A375 cells assessed as […] at <10 uM incubated for 12 hrs followed by poly(I:C) treatment and measured after 4 hrs by Surefire assay. It is filed as cell-based.
Data set [16] has as its target T2, Dual specificity mitogen-activated protein kinase kinase 1. Briefly: Inhibition of MEK1 in human A375 cells assessed as reduction in ERK1/2 phosphorylation at 10 uM incubated for 1 to 16 hrs in presence of poly(I:C) stimulation by Surefire assay. Format: cell-based.
For data set [17] the target is unchanged. Briefly: Inhibition of MEK1 in human A375 cells assessed as inhibition of ERK1/2 phosphorylation at 1 to 10 uM incubated for 12 hrs followed by poly(I:C) treatment and measured after 4 hrs by Surefire assay. Format: cell-based.
Data set [18] deals with A-375. Kind of data set: Reduction in MEK1 protein level in human A375 cells at 100 pM to 10 uM incubated for 12 hrs followed by poly(I:C) treatment and measured after 4 hrs by Surefire assay relative to untreated control. It is filed as functional.
The target in data set [19] is T1, von Hippel-Lindau disease tumor suppressor/Dual specificity mitogen-activated protein kinase kinase 2/Dual specificity mitogen-activated protein kinase kinase 1 (Homo sapiens). Briefly: Protac activity at VHL/MEK in human A375 cells assessed as MEK1 degradation at 10 uM incubated up to 8 hrs in presence of poly(I:C) stimulation by Surefire assay. Format: cell-based.

Data set [20] addresses T2, Dual specificity mitogen-activated protein kinase kinase 1. Briefly: Inhibition of MEK1 in human A375 cells assessed as reduction in IL6 secretion at 1 to 10 uM incubated for 12 hrs followed by poly(I:C) treatment and measured after 4 hrs by AlphaLISA assay. It is filed as cell-based.
Data set [21] concerns A-375. Kind of data set: Reduction in MEK1 protein expression in human A375 cells at 10 uM incubated for 16 hrs in presence of poly(I:C) stimulation by Surefire assay. It is filed as functional, cell-based.
Data set [22] deals with A-375. Kind of data set: Antiproliferative activity against human A375 cells assessed as reduction in cell viability. Format: functional, cell-based.

T1 sequence (P36507 whole entry, looked up): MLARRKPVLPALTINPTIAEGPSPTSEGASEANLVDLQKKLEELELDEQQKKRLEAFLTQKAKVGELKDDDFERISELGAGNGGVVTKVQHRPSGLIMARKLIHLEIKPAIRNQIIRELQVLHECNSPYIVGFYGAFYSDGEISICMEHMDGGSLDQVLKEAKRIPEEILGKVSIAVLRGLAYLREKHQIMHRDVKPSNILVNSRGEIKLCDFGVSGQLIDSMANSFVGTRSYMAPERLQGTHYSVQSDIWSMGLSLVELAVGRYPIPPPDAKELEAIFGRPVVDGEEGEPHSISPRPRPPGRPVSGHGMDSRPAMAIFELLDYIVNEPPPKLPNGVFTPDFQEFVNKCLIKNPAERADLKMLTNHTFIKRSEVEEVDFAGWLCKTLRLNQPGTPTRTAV
T1 sequence (P40337 whole entry, looked up): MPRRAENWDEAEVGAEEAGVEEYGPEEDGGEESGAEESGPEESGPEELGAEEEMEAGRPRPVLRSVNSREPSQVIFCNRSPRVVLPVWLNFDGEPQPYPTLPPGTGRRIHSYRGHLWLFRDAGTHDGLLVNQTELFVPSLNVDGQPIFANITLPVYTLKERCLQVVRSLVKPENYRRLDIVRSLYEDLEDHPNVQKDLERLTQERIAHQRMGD
T1 sequence (Q02750 whole entry, looked up): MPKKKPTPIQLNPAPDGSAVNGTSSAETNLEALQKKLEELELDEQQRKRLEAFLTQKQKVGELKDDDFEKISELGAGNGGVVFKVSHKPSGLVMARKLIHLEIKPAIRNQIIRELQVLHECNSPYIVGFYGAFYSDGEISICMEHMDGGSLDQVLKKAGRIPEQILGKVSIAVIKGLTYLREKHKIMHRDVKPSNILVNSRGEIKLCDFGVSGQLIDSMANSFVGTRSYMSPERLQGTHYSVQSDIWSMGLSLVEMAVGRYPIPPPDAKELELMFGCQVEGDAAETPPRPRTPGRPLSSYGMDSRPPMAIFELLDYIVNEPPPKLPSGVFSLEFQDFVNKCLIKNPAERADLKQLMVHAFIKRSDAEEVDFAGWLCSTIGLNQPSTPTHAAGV
T2 sequence (Q02750 whole entry): as the sequence (Q02750 whole entry, looked up) above

Take `Cc1ncsc1-c1ccc([C@H](C)NC(=O)[C@@H]2C[C@@H](O)CN2C(=O)[C@@H](NC(=O)COCCOCCOCCOCCNC(=O)CCc2ccc(S(=O)(=O)Nc3cc(C)c(=O)n(C)c3Nc3ccc(I)cc3F)cc2)C(C)(C)C)cc1`: the result in data set [1], in data set [2], in [3], in data set [4], in [6] and in [10] was Active. Further, the outcome in [14] and in data set [15] was Active. Also, the Activity in data set [5] was 96%; in data set [9] it was 91%. In addition, the inhibition (usually the drop in the measured response relative to a control, in per cent) in [7] was 100%. For the same compound, the solubility (commonly the concentration that dissolves in the medium under given conditions) in [8] is less than 1.5 µM. Besides, the IC50 (usually the concentration needed to halve the response being measured) in [11] was 0.1 µM. Also, the logD (commonly lipophilicity at a set pH, counting ionised and neutral species) in [12] was found to be 4.3. Also, the “growth inhibition (GI)” value in the data set on A-375 [13] was “Active”.
With `Cc1ncsc1-c1ccc([C@H](C)NC(=O)[C@@H]2C[C@@H](O)CN2C(=O)[C@@H](NC(=O)COCCOCCOCCNC(=O)CCc2ccc(S(=O)(=O)Nc3cc(C)c(=O)n(C)c3Nc3ccc(I)cc3F)cc2)C(C)(C)C)cc1`, the result in data set [1], in data set [2], in data set [3], in data set [4], in [6] and in data set [10] was Active. Further, the result in data set [14] and in data set [15] was Active. Further, the Activity in data set [5] was 94%; in [9], 90%. Also, in data set [7], the inhibition was determined as 100%. Moreover, the IC50 in data set [11] is 0.1 µM. Besides, in the data set on A-375 [13], the “growth inhibition (GI)” value was “Active”.
For `Cc1cc(NS(=O)(=O)c2ccccc2)c(Nc2ccc(I)cc2F)n(C)c1=O`, the inhibition entry (in data set [16]; in [17]; in data set [20]; with A-375 [21]) was “Active” throughout. Moreover, the outcome in [2], in [19] and in data set [14] was inactive. Further, the Activity in [5] was 1%; in data set [9] it was -7%. The “inhibition (INH)” value with A-375 [18] is recorded as 20%. In data set [11], the IC50 was 0.398 µM. The compound further yielded a logD in [12] of 3.9. Further, in the data set on A-375 [13], the “growth inhibition (GI)” value is “Active”.
In the case of `CC(=O)Nc1cccc(-n2c(=O)n(C3CC3)c(=O)c3c(Nc4ccc(I)cc4F)n(C)c(=O)c(C)c32)c1` [TRAMETINIB], the IC50 with A-375 [22] came out at 0.00074 µM.
For `Cc1ncsc1-c1ccc([C@H](C)NC(=O)[C@@H]2C[C@@H](O)CN2C(=O)[C@@H](NC(=O)COCCOCCOCCNC(=O)COc2ccc(S(=O)(=O)Nc3cc(C)c(=O)n(C)c3Nc3ccc(I)cc3F)cc2)C(C)(C)C)cc1`, the outcome in [1], in data set [2], in data set [3], in [4], in data set [6] and in data set [10] was Active. Further, the outcome in data set [14] and in data set [15] was Active. Also, the Activity in [5] was determined as 95%; in data set [9], 72%. Further, the inhibition in data set [7] was 100%. In data set [11], the IC50 was 0.158 µM. The “growth inhibition (GI)” value in the data set on A-375 [13] was “Active”.
Regarding `O=C(c1ccc(F)c(F)c1Nc1ccc(I)cc1F)N1CC(O)([C@@H]2CCCCN2)C1` [COBIMETINIB], the IC50 in the data set on A-375 [22] is 0.005 µM.
